Laboratory results published in PMC6269309 (Haematologica, 2018).
Where two headings read alike, the source gives them in different places.

How the values were obtained:
[1] = system: GPVI-mediated platelet aggregation (washed platelets, CRP); experiment: Light transmission aggregometry, washed platelets stimulated with CRP; type: cell-based, human
[2] = system: Btk pY223; type: cell-based, human
[3] = system: PLCγ2 pY753, pY759, pY1217; experiment: Protein phosphorylation, western blot of CRP-stimulated washed platelets: PLCγ2; type: cell-based, human
[4] = system: Src pY418; type: cell-based, human
[5] = system: Syk pY525/6; type: cell-based, human
[6] = system: LAT pY200; type: cell-based, human
[7] = system: SLP-76 pY145; type: cell-based, human
[8] = system: Btk pY551; type: cell-based, human
[9] = system: Tec; experiment: Tec phosphorylation, immunoprecipitation and blotting with 4G10; type: cell-based, human; details: washed platelets 8x10^8/mL, CRP 10 μg/mL 180 s
[10] = system: GPVI-induced platelet aggregation; type: in vivo, human; details: CLL patients, ibrutinib 420 mg once daily or acalabrutinib 100 mg twice daily, PRP, 2-3 h after dose, CRP 10 μg/mL
[11] = system: PLCγ2 pY1217; experiment: Ex vivo PLCγ2 pY1217 phosphorylation in washed platelets of treated patients; design: species or system human; details: CLL patients, ibrutinib 420 mg once daily or acalabrutinib 100 mg twice daily
[12] = system: platelet aggregation induced by ADP and PAR1 peptide; type: in vivo, human; details: patients taking either inhibitor, data not shown
[13] = system: Btk pY223; details: CLL patients, ibrutinib 420 mg once daily or acalabrutinib 100 mg twice daily
[14] = cited from earlier work
[15] = cited from earlier work; remark: listed apart in the source
[16] = system: Btk; details: cited from earlier work
[17] = system: ATP secretion of washed platelets; experiment: Granule release; type: cell-based, human
[18] = system: Ca2+ mobilization in platelets; experiment: Measurement of [Ca2+]i in Fura-2-loaded platelets stimulated with CRP; type: cell-based, human
[19] = system: NFAT signaling in DT40 cells; type: cell-based, chicken; details: collagen 10 μg/mL, no serum
[20] = system: whole cell tyrosine phosphorylation; experiment: Whole cell tyrosine phosphorylation in CRP-stimulated washed platelets; type: cell-based, human
[21] = cited from earlier work; remark: listed apart in the source
[22] = system: Btk; details: doses of 2.5 mg/kg; cited from earlier work
[23] = higher concentrations, up to 200 μM

## CC#CC(=O)N1CCC[C@H]1c1nc(-c2ccc(C(=O)Nc3ccccn3)cc2)c2c(N)nccn12 [acalabrutinib]
[1]; 2 μM, CRP
  Onset of aggregation: slight delay in aggregation
  Overall magnitude of aggregation response: no effect
[2]; 2 μM, CRP 10 μg/mL
  Tyrosine phosphorylation of Btk on Y223: blocked
[3]; 2 μM, CRP 10 μg/mL
  Tyrosine phosphorylation of PLCγ2 on Y759 and Y1217: blocked
[4]; [23]
  Phosphorylation of Src Y418: had no effect
[5]; [23]
  Phosphorylation of Syk Y525/6: had no effect
[6]; [23]
  Phosphorylation of LAT Y200: had no effect
[7]; [23]
  Phosphorylation of SLP-76 Y145: small reduction
[8]; [23]
  Phosphorylation of Btk Y551: small reduction
[9]
  Concentration giving full blockade of Tec phosphorylation: 200 µM
  Concentration giving partial inhibition of Tec phosphorylation: approximately 1 μM
[10]
  GPVI-induced platelet aggregation ex vivo: not blocked
[11]
  Phosphorylation of PLCγ2 pY1217 ex vivo: complete inhibition
[12]
  Platelet aggregation induced by ADP and PAR1 peptide ex vivo: not altered
[13]
  Autophosphorylation of Btk pY223 ex vivo: complete inhibition
[14]
  Half-life: 1 h
[14]; patients
  Mean peak free drug concentration in patients: 1.3 µM
[15]
  Major hemorrhage in treated patients: not seen
[16]
  IC50 for Btk relative to ibrutinib (lower): 5 fold
  Potency as an inhibitor of Btk relative to ibrutinib (lower): 5 fold

## C=CC(=O)N1CCC[C@@H](n2nc(-c3ccc(Oc4ccccc4)cc3)c3c(N)ncnc32)C1 [ibrutinib]
[1]; 70 nM
  Response to a sub-maximal concentration of CRP: reduced response
[1]; 70 nM, incubation ≥5 min, CRP 10 μg/mL
  Aggregation in response to a high concentration of CRP: time-dependent delay in aggregation
[1]; 700 nM, incubation ≥30 s, CRP 10 μg/mL
  Aggregation in response to a high dose of CRP: block aggregation
[17]; 70 nM
  ATP secretion in response to a high concentration of CRP: no effect
[17]; 700 nM
  ATP secretion in response to a high concentration of CRP: blocked
[18]; 70 nM
  Peak Ca2+ concentration after a high concentration of CRP: not altered
[18]; 700 nM
  Peak Ca2+ concentration after a high concentration of CRP: markedly reduced
[2]; 70 nM, CRP 10 μg/mL
  Autophosphorylation of Btk: reduced to basal levels
[2]; two washing steps before CRP
  Reversibility of inhibition of Btk pY223 autophosphorylation: irreversible
[3]; 70 nM, CRP 10 μg/mL
  Phosphorylation of downstream PLCγ2: reduced to basal levels
[3]; two washing steps before CRP
  Reversibility of inhibition of PLCγ2 pY753 and pY1217: irreversible
[4]; 70 nM, CRP 10 μg/mL
  Phosphorylation of Src Y418: not altered
[4]; two washing steps before CRP
  Reversibility of inhibition of Src pY418: reversible
[5]; 70 nM, CRP 10 μg/mL
  Phosphorylation of Syk Y525/6: not altered
[5]; CRP 10 μg/mL
  Dose at which inhibition of Syk Y525/6 phosphorylation was seen: 7 µM
[6]; 70 nM, CRP 10 μg/mL
  Phosphorylation of LAT Y200: not altered
[6]; CRP 10 μg/mL
  Dose at which inhibition of LAT Y200 phosphorylation was seen: 7 µM
[7]; 70 nM, CRP 10 μg/mL
  Phosphorylation of SLP-76 Y145: not altered
[7]; CRP 10 μg/mL
  Dose at which inhibition of SLP-76 Y145 phosphorylation was seen: 7 µM
[8]; 70 nM, CRP 10 μg/mL
  Phosphorylation of Btk on Y551: not altered
[8]; CRP 10 μg/mL
  Dose at which inhibition of Btk Y551 phosphorylation was seen: 7 µM
[9]
  Concentration giving full blockade of Tec phosphorylation: 7 µM
  Concentration giving partial blockade of Tec phosphorylation: 170 nM
[19]; high dose (range 0.5-10 μM)
  NFAT signaling, WT and KD Btk transfected cells: blocked NFAT signaling
[19]; low dose (range 0.5-10 μM)
  NFAT signaling, cells transfected with WT or KD Btk: had no effect
[10]
  GPVI-induced platelet aggregation ex vivo: blocked
[11]
  Phosphorylation of PLCγ2 pY1217 ex vivo: complete inhibition
[12]
  Platelet aggregation induced by ADP and PAR1 peptide ex vivo: not altered
[20]; CRP 10 μg/mL
  Dose at which inhibition of whole cell phosphorylation was seen: 7 µM
[20]; two washing steps before CRP
  Reversibility of inhibition of global tyrosine phosphorylation: reversible on washout
[21]
  Bound to plasma proteins: 97%
[14]
  Initial half-life: 2 to 3 h
  Terminal half-life: 4 to 8 h
[22]
  Btk occupancy: > 95%
